Experimental data published in patent US20080021012A1, “3-[4-{6-Substituted Alkanoyl Pyridin-3-Yl}-3-Phenyl]-5-(1H-1,2,3-Triazol-1-Ylmethyl)-1,3-Oxazolidin-2-Ones As Antibacterial Agents” (ASTRAZENECA AB, priority 2004, published 2008).
In brackets after ≈: the same amount, converted by molar mass. Where a name gives a salt, the structure may show the parent alone.

Key:
MAO-A = target: T1, MAO-A (Homo sapiens, UniProt P21397); assay: MAO-A inhibition, standard in-vitro assay; type: biochemical; conditions: human liver enzyme expressed in yeast
T1 construct: made in house; host or cells: yeast
T1 sequence (P21397 1-527): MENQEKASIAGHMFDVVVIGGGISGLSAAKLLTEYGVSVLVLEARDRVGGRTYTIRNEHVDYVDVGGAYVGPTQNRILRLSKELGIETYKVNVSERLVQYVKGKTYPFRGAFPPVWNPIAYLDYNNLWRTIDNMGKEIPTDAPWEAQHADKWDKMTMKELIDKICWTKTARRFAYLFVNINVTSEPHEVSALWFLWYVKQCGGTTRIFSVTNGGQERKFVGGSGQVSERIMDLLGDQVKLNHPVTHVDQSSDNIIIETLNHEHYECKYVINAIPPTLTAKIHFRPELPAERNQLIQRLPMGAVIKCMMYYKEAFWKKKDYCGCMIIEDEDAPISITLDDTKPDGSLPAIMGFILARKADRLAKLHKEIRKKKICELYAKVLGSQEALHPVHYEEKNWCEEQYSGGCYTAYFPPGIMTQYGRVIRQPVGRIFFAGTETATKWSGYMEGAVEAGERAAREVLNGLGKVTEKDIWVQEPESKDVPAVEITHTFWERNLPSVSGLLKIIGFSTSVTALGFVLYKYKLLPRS
Protocol: Inhibition of mono-amine oxidase (MAO) is a known potential side effect of oxazolidinone antibiotics (see for example WO 03/072575).
The activity of the compounds of the invention against MAO-A was tested using a standard in-vitro assay based on human liver enzyme expressed in yeast as described in Biochem. Biophys. Res. Commun. 1991, 181, 1084-1088. Compounds of the invention typically give Ki values of >5 μM when measured in such an assay as above.

physchem = conditions: pH 7.4, aqueous buffer, thermodynamic from solid
From the text: It will be understood that parameters such as solubility may be measured by any suitable technique known in the art.

[1] = test system: Staphylococcus aureus MRQR; assay: MIC, agar-dilution, Staphylococcus aureus MRQR; type: cell-based; conditions: Staphylococcus aureus MRQR (methicillin resistant and quinolone resistant), 10^4 CFU/spot, 37° C., 24 hours
Protocol: (§1) The following results were obtained on a standard in-vitro test system. The activity is described in terms of the minimum inhibitory concentration (MIC) determined by the agar-dilution technique with an inoculum size of 10^4 CFU/spot. Typically, compounds are active in the range 0.01 to 256 μg/ml.
(§2) Staphylococci were tested on agar, using an inoculum of 10^4 CFU/spot and an incubation temperature of 37° C. for 24 hours—standard test conditions for the expression of methicillin resistance.

Streptococcus pneumoniae = assay: MIC, agar-dilution, Streptococcus pneumoniae; type: cell-based; conditions: agar with 5% defibrinated horse blood, 37° C., 5% carbon dioxide, 48 hours
Protocol: as §1
(§3) Streptococci and enterococci were tested on agar supplemented with 5% defibrinated horse blood, an inoculum of 10^4 CFU/spot and an incubation temperature of 37° C. in an atmosphere of 5% carbon dioxide for 48 hours—blood is required for the growth of some of the test organisms. Fastidious Gram negative organisms were tested in Mueller-Hinton broth, supplemented with hemin and NAD, grown aerobically for 24 hours at 37° C., and with an innoculum of 5×10^4 CFU/well.

Moraxella catarrhalis = assay: MIC, Moraxella catarrhalis; type: cell-based; conditions: Mueller-Hinton broth with hemin and NAD, 24 hours, 37° C.
Protocol: as §1, §3

[2] = test system: Linezolid Resistant Streptococcus pneumoniae; assay: MIC, Linezolid Resistant Streptococcus pneumoniae; type: cell-based
Protocol: as §1, §3

Haemophilus influenzae = assay: MIC, Haemophilus influenzae; type: cell-based; conditions: Mueller-Hinton broth with hemin and NAD, 24 hours, 37° C.
Protocol: as §1, §3

[3] = test system: Staphylococcus aureus MSQS; assay: MIC, agar-dilution, Staphylococcus aureus MSQS; type: cell-based; conditions: Staphylococcus aureus MSQS (methicillin sensitive and quinolone sensitive), 10^4 CFU/spot, 37° C., 24 hours
Protocol: as §1, §2

| Structure (SMILES) | melting point | Ki (MAO-A) [µM] | also measured |
| --- | --- | --- | --- |
| O=C(c1ccc(-c2ccc(N3C[C@H](Cn4ccnn4)OC3=O)cc2F)cn1)C1CCNCC1 (as salt: hydrochloride) [Example 8, (5R)-3-{3-Fluoro-4-[6-(piperidin-4-ylcarbonyl)pyridin-3-yl]phenyl}-5-(1H-1,2,3-triazol-1-ylmethyl)-1,3-oxazolidin-2-one] | > 275 °C (dec.) |  |  |
| O=C1O[C@@H](Cn2ccnn2)CN1c1ccc(-c2ccc(/C=N/O)nc2)c(F)c1 [Ref Example 3, 5-{2-Fluoro-4-[(5R)-2-oxo-5-(1H-1,2,3-triazol-1-ylmethyl)-1,3-oxazolidin-3-yl]phenyl}pyridine-2-carbaldehyde oxime] | > 230 °C (dec.) | < 0.3 |  |
| CC(=O)NC[C@H]1CN(c2ccc(-c3ccc(-c4nnn(C)n4)nc3)c(F)c2)C(=O)O1 [Reference Example 4] |  |  | solubility thermodynamic (physchem): 35.1 µM (≈ 14.4 µg/mL) |
| CC(C)(C)O/N=C/c1ccc(-c2ccc(N3C[C@H](Cn4ccnn4)OC3=O)cc2F)cn1 [Example 3] | 192 °C | 6.4 |  |
| CCc1nccn1CC(=O)c1ccc(-c2ccc(N3C[C@H](Cn4ccnn4)OC3=O)cc2F)cn1 [Example 14, (5R)-3-(4-{6-[(2-Ethyl-1H-imidazol-1-yl)acetyl]pyridin-3-yl}-3-fluorophenyl)-5-(1H-1,2,3-triazol-1-ylmethyl)-1,3-oxazolidin-2-one] | 77 to 79 °C |  |  |
| Cc1cn(CC(=O)c2ccc(-c3ccc(N4C[C@H](Cn5ccnn5)OC4=O)cc3F)cn2)cn1 (as salt: hydrochloride) [Example 5, (5R)-3-(3-Fluoro-4-{6-[(4-methyl-1H-imidazol-1-yl)acetyl]pyridin-3-yl}phenyl)-5-(1H-1,2,3-triazol-1-ylmethyl)-1,3oxazolidin-2-one] | > 217 °C (dec.) |  |  |
| CC(=O)c1ccc(-c2ccc(N3C[C@H](Cn4ccnn4)OC3=O)cc2F)cn1 [Ref Example 1, (5R)-3-[4-(6-Acetylpyridin-3-yl)-3-fluorophenyl]-5-(1H-1,2,3-triazol-1-ylmethyl)-1,3-oxazolidin-2-one] | > 210 °C (dec.) | 0.72 |  |
| Cn1nnc(-c2ccc(-c3ccc(N4C[C@H](Cn5ccnn5)OC4=O)cc3F)cn2)n1 [Reference Example 5, (5R)-3-(3-Fluoro-4-(6-(2-methyl-2H-tetrazol-5-yl)pyrid-3-yl)phenyl)-5-(1H-1,2,3-triazol-1-ylmethyl)-1,3-oxazolidin-2-one] |  |  | solubility thermodynamic (physchem): < 7.1 µM |
| O=C(Cn1ccnc1)c1ccc(-c2ccc(N3C[C@H](Cn4ccnn4)OC3=O)cc2F)cn1 (as salt: hydrochloride) [Example 1, (5R)-3-{3-Fluoro-4-[6-(1H-imidazol-1-ylacetyl)pyridin-3-yl]phenyl}-5-(1H-1,2,3-triazol-1-ylmethyl)-1,3-oxazolidin-2-one] | > 230 °C (dec.) |  |  |
| O=C(c1ccc(-c2ccc(N3C[C@H](Cn4ccnn4)OC3=O)cc2F)cn1)C1CNC1 (as salt: hydrochloride) [Example 9, (5R)-3-{4-[6-(Azetidin-3-ylcarbonyl)pyridin-3-yl]-3-fluorophenyl}-5-(1H-1,2,3-triazol-1-ylmethyl)-1,3-oxazolidin-2-one] | > 90 °C (dec.) |  |  |
| CC(C)c1nccn1CC(=O)c1ccc(-c2ccc(N3C[C@H](Cn4ccnn4)OC3=O)cc2F)cn1 [Example 12] | 82 to 83 °C |  |  |
| CCCc1nccn1CC(=O)c1ccc(-c2ccc(N3C[C@H](Cn4ccnn4)OC3=O)cc2F)cn1 [Example 11] | 81 °C |  |  |
| O=C(CCCN1CCOCC1)c1ccc(-c2ccc(N3C[C@H](Cn4ccnn4)OC3=O)cc2F)cn1 [Example 2, (5R)-3-{3-Fluoro-4-[6-(4-morpholin-4-ylbutanoyl)pyridin-3-yl]phenyl}-5-(1H-1,2,3-triazol-1-ylmethyl)-1,3-oxazolidin-2-one] |  | 15 |  |
| O=Cc1ccc(-c2ccc(N3C[C@H](Cn4ccnn4)OC3=O)cc2F)cn1 [Ref Example 2, 5-{2-Fluoro4-[(5R)-2-oxo-5-(1H-1,2,3-triazol-1-ylmethyl)-1,3-oxazolidin-3-yl]phenyl}pyridine-2-carbaldehyde] | > 180 °C (dec.) | 0.7 |  |
| Cc1nccn1CC(=O)c1ccc(-c2ccc(N3C[C@H](Cn4ccnn4)OC3=O)cc2F)cn1 (as salt: hydrochloride) [Example 4] | > 240 °C (dec.) |  |  |
| O=C(Cn1ccnc1)c1ccc(-c2ccc(N3C[C@H](Cn4ccnn4)OC3=O)cc2F)cn1 [Example 1, (5R)-3-{3-Fluoro-4-[6-(1H-imidazol-1-ylacetyl)pyridin-3-yl]phenyl}-5-(1H-1,2,3-triazol-1-ylmethyl)-1,3-oxazolidin-2-one] |  | > 5 | MIC [1]: 0.25 µg/mL (≈ 0.559 µM); MIC (Streptococcus pneumoniae): 0.13 µg/mL (≈ 0.291 µM); solubility (physchem): 1450 µM (≈ 650 µg/mL); MIC (Moraxella catarrhalis): 0.5 µg/mL (≈ 1.12 µM); MIC [2]: 0.5 µg/mL (≈ 1.12 µM); MIC (Haemophilus influenzae): 2 µg/mL (≈ 4.47 µM); MIC [3]: 0.25 µg/mL (≈ 0.559 µM) |
| COCc1nccn1CC(=O)c1ccc(-c2ccc(N3C[C@H](Cn4ccnn4)OC3=O)cc2F)cn1 [Example 15, (5R)-3-[3-Fluoro-4-(6-{[2-(methoxymethyl)-1H-imidazol-1-yl]acetyl}pyridin-3-yl)phenyl]-5-(1H-1,2,3-triazol-1-ylmethyl)-1,3-oxazolidin-2-one] | 78 to 80 °C |  |  |
| O=C(CC1CCNCC1)c1ccc(-c2ccc(N3C[C@H](Cn4ccnn4)OC3=O)cc2F)cn1 (as salt: hydrochloride) [Example 6, (5R)-3-{3-Fluoro-4-[6(piperidin-4-ylacetyl)pyridin-3-yl]phenyl}-5-(1H-1,2,3-triazol-1-ylmethyl)-1,3-oxazolidin-2-one] | > 196 °C (dec.) |  |  |
| Cc1cn(CC(=O)c2ccc(-c3ccc(N4C[C@H](Cn5ccnn5)OC4=O)cc3F)cn2)c(C)n1 [Example 13, (5R)-3-(4-{6-[(2,4-Dimethyl-1H-imidazol-1-yl)acetyl]pyridin-3-yl}-3-fluorophenyl)-5-(1H-1,2,3-triazol-1-ylmethyl)-1,3-oxazolidin-2-one] | 78 °C |  |  |
